For one assay, the system named is MIAPaCa2. The assay is described as follows: Cell viability assay (CellTiter Glo), MIAPaCa2. The settings on record: Homo sapiens, MIA PaCa-2, 72 h incubation, mean of independent triplicate experiments, read-out: In vitro anti-proliferative activity IC50, MIAPaCa2. The format is cell-based. As for the experimental part: (§1) The antiproliferative activity of compound I as well as its newly synthesised analogues (5a–i) was evaluated in vitro against the three human breast cancer cell lines MDA-MB-231 (TNBC), T47D (ER^+, HER^−), and BT474 (ER^+, HER^+) as well as a human pancreatic cancer cell line MIAPaCa2. The seeding of the corresponding cell lines started one day before incubation, which lasted for 72 h with the different concentrations of the tested compounds. CellTiter Glo reagent (25 μL) was added to the cell plate. The luminescence was analysed after 10 min using a PerkinElmer Envision instrument. The test compounds were used at ten different triplicate concentrations in half log increments up to 100 μM.

The test system of assay [1] is MDA-MB-231. The assay is described as follows: Preliminary in vitro profiling of virtual hits. The format is cell-based, human. From the text:
Approximately 210,000 small molecules from the SPECS virtual library of compounds were imported, rendered, and minimised using a MMFF94x force field and run in a virtual screening simulations programme using Glide SP within Maestro software (Glide, version 9.5, Schrödinger; http://www.schrodinger.com). These compounds underwent four stages of filtration including prefiltration of the non-drug-like compounds in accordance with Lipinski’s rules and excluding chemically unstable and potentially toxic groups. This was followed by high throughput virtual screening (HTVS), standard precision virtual screening (SPVS) and extra precision virtual screening (XPVS). Each compound was positioned in the chosen pocket, which was made up of the area surrounding the three amino acids Asp 1036, Ser 910, and Lys 1032 within a 12 A° radius and scored for electrostatic and van der Waals interactions as implemented in the Schrodinger virtual screening package (version 9.5). […] These 25 hits underwent preliminary in vitro profiling in the metastatic triple negative breast cancer (TNBC) cell line (MDA-MB-231) for antiproliferative and antimigratory properties.

Assay [2] concerns MDA-MB-231. The experiment in a line: Cell viability assay (CellTiter Glo), MDA-MB-231. The format is cell-based. The note with it: Homo sapiens, 72 h incubation, mean of independent triplicate experiments, read-out: In vitro anti-proliferative activity IC50, MDA-MB-231 ER- PR- HER-. As for the experimental part: as §1
Background: In ATP-based viability assays light output follows the ATP content of the culture.

Regarding `CC(C)(C)c1ccc(C(CN)c2ccc(Cl)cc2)cc1` (stereo not drawn) [Compound I], the IC50 (usually the concentration at which inhibition is half-maximal) in the assay with MIAPaCa2 stood at 5.66 µM; in the assay on MDA-MB-231 [2], 6.37 µM. Moreover, the “Antiproliferative and antimigratory properties (preliminary profiling)” value with MDA-MB-231 [1] was “low micromolar antiproliferative and antimigratory properties exceeding those of chloropyramine (C4)”.

The values are drawn from publication PMC7435868, “Structure-Based Virtual Screening, Synthesis and Biological Evaluation of Potential FAK-FAT Domain Inhibitors for Treatment of Metastatic Cancer” (Molecules, 2020).
